The values that follow come from US5603963A, “Method for the treatment of retroviral diseases such as acquired immune deficiency syndrome utilizing (pseudo)halogen complexes of gold(1)” (priority 1994, dated 1997).

One data set relates to AIDS. To be noted: cited from earlier work.
Data set [1] has as its system HIV reverse transcriptase. To be noted: in vitro; cited from earlier work.
The subject of a further data set is HIV. Conditions: CEM cells; concentrations in the 6ppm range; cited from earlier work.
Details of data set [2]: species or system patients. To be noted: human, in vivo. An excerpt:
A powerful means to attack the AIDS virus (HIV) would be to find a specific inhibitor of the viral reverse transcriptase. If this enzyme cannot function, viral replication cannot take place. The significant aspect of the viral life cycle which must be considered is that the viral replication takes place intracellularly. Thus, agents which may work in a test tube to inhibit the enzyme activity will have no effect on the virus itself unless the agent is capable of entering cells and developing an effective intracellular concentration.

In another data set the test system is cells. To be noted: cited from earlier work.

Where two headings read alike, the source gives them in different places.

Procedure for red blood cells: (§1) Experiments were done in which whole blood or red blood cells were washed and resuspended in a balanced salt solution, and then incubated at 37° with 200 ppb [Au(CN)2 ]^-. After 1 hour of incubation, cells were washed with balanced salt, centrifuged, then resuspended in water to lyse the cells. The resulting suspension was centrifuged at 20,000 rpm to separate the membrane and lysate (soluble protein) fractions. Both membrane and lysate fractions were analyzed for total gold by flow injection analysis using an inductively coupled plasma-mass spectrometer (ICP-MS).
Procedure for whole blood: as §1

With `Cc1cn([C@H]2C[C@H](N=[N+]=[N-])[C@@H](CO)O2)c(=O)[nH]c1=O` [AZT, azidothymidine], in the data set with AIDS (AIDS), the side effects entry is “significant side effects”.

Regarding `O=c1[nH]cnc2c1ncn2[C@H]1CC[C@@H](CO)O1` [DDI, dideoxyinosine], in the data set with AIDS (in vivo), the side effects result is recorded as “significant side effects”.

On to bis(thioglucose)gold(I), for which the “inhibition of HIV reverse transcriptase” value in data set [1] is “does inhibit HIV reverse transcriptase”. Further, in the data set on HIV, the “inhibition of the infectivity of HIV” value is recorded as “inhibit the infectivity of HIV”.

Consider gold(I) thioglucose [Solganol], for which, in data set [2], the “levels of gold inside cells (in words)” value is on record as “well below the levels required to inhibit the enzyme in vitro” and the “levels of gold inside cells relative to amount found in blood” value is “less than 5%”. Further, the “inhibition of HIV reverse transcriptase” value in data set [1] is on record as “inhibit HIV reverse transcriptase”. For the same molecule, the “ability to enter cells” value with cells was “inherently unable to enter cells”.

As for sodium gold(I) thiomalate [Myochrysine], in the data set with whole blood, the “gold remaining in the incubation medium” value was about 90%, the “total gold found in the cell lysate” value is reported as “about 5%”, the “total gold in Cell lysate” value turned out to be 4% and the “total gold in Membranes” value came out at 6%. Moreover, in the data set on whole blood, the “total gold in Supernatant” value worked out at 90%. For the same molecule, in the data set on red blood cells, the “total gold in Cell lysate” value worked out at 6%, the “total gold in Membranes” value was 10% and the “total gold in Supernatant” value came out at 84%.
